In ChEMBL document CHEMBL3779769, “Indole-2-carboxylic acid derived mono and bis 1,4-disubstituted 1,2,3-triazoles: Synthesis, characterization and evaluation of anticancer, antibacterial, and DNA-cleavage activities” (Bioorg Med Chem Lett, 2016):
≈ marks a conversion by molar mass, not a printed value. Calls of active or inactive are those of the source. No cut-off for these calls is given here.

Experiments:
Staphylococcus aureus = assay: Antibacterial activity against Staphylococcus aureus MTCC 96 by broth dilution method; type: functional
Escherichia coli [1] = assay: Antibacterial activity against Escherichia coli MTCC 443 by broth dilution method; type: functional
HEK293 = assay: Cytotoxicity against HEK293 cells assessed as cell viability after 48 hrs by MTT assay; type: cell-based; conditions: Homo sapiens, HEK293, 48 h
MCF7 = assay: Cytotoxicity against human MCF7 cells assessed as cell viability after 48 hrs by MTT assay; type: functional, cell-based; conditions: MCF7, 48 h
Bacillus subtilis = assay: Antibacterial activity against Bacillus subtilis MTCC 441 by broth dilution method; type: functional
Proteus vulgaris = assay: Antibacterial activity against Proteus vulgaris MTCC 1771 by broth dilution method; type: functional
HeLa = assay: Cytotoxicity against human HeLa cells assessed as cell viability after 48 hrs by MTT assay; type: functional, cell-based
Escherichia coli [2] = assay: Induction of DNA cleavage of Escherichia coli pUC18 at 100 ug/ml by agarose gel electrophoresis
Escherichia coli [3] = assay: Induction of DNA cleavage of Escherichia coli pUC18 at 50 ug/ml by agarose gel electrophoresis
Mus musculus [4] = assay: Effect on SGOT level in Swiss albino mouse xenografted with mouse EAC cells at 10 mg/kg, ip administered for 9 days measured on day 14 (reference value: 116.04 +/- 0.14 IU/L); type: functional, Ehrlich
Mus musculus [5] = assay: Effect on total protein level in Swiss albino mouse xenografted with mouse EAC cells at 10 mg/kg, ip administered for 9 days measured on day 14 (reference value: 7.84 +/- 0.36 […]); type: functional, Ehrlich
[6] = Anticancer activity against mouse EAC cells xenografted in Swiss albino mouse assessed as viable tumor cell count at 5 mg/kg, ip administered for 9 days measured after 14 days by trypan blue incorporation method (reference value: 7.30 +/- 0.6 10^7/ml); type: functional, Ehrlich
Mus musculus [7] = assay: Effect on body weight in Swiss albino mouse xenografted with mouse EAC cells at 5 mg/kg, ip administered for 9 days (reference value: 13.57 +/- 0.4 g); type: functional, Ehrlich
[8] = Anticancer activity against mouse EAC cells xenografted in Swiss albino mouse assessed as packed cell volume at 10 mg/kg, ip administered for 9 days measured after 14 days […] (reference value: 2.62 +/- 0.5 ml); type: functional, Ehrlich
[9] = Anticancer activity against mouse EAC cells xenografted in Swiss albino mouse assessed as viable tumor cell count at 10 mg/kg, ip administered for 9 days measured after 14 days by trypan blue incorporation method (reference value: 7.30 +/- 0.6 10^7/ml); type: functional, Ehrlich
[10] = Anticancer activity against mouse EAC cells xenografted in Swiss albino mouse assessed as tumor volume at 10 mg/kg, ip administered for 9 days measured after 14 days (reference value: 12.15 +/- 0.5 ml); type: functional, Ehrlich
Mus musculus [11] = assay: Effect on total protein level in Swiss albino mouse xenografted with mouse EAC cells at 5 mg/kg, ip administered for 9 days measured on day 14 (reference value: 7.84 +/- 0.36 […]); type: functional, Ehrlich
Mus musculus [12] = assay: Effect on WBC level in Swiss albino mouse xenografted with mouse EAC cells at 10 mg/kg, ip administered for 9 days measured on day 14 (reference value: 22.07 +/- 0.11 10^3/mm3); type: functional, Ehrlich
[13] = Anticancer activity against mouse EAC cells xenografted in Swiss albino mouse assessed as tumor volume at 5 mg/kg, ip administered for 9 days measured after 14 days (reference value: 12.15 +/- 0.5 ml); type: functional, Ehrlich
[14] = Anticancer activity against mouse EAC cells xenografted in Swiss albino mouse assessed as packed cell volume at 5 mg/kg, ip administered for 9 days measured after 14 days […] (reference value: 2.62 +/- 0.5 ml); type: functional, Ehrlich
Mus musculus [15] = assay: Effect on WBC level in Swiss albino mouse xenografted with mouse EAC cells at 5 mg/kg, ip administered for 9 days measured on day 14 (reference value: 22.07 +/- 0.11 10^3/mm3); type: functional, Ehrlich
[16] = Anticancer activity against mouse EAC cells xenografted in Swiss albino mouse assessed as percent increase in life span at 5 mg/kg, ip administered for 9 days measured for 30 days; type: functional; conditions: Ehrlich
Mus musculus [17] = assay: Effect on SGOT level in Swiss albino mouse xenografted with mouse EAC cells at 5 mg/kg, ip administered for 9 days measured on day 14 (reference value: 116.04 +/- 0.14 IU/L); type: functional, Ehrlich
Mus musculus [18] = assay: Effect on body weight in Swiss albino mouse xenografted with mouse EAC cells at 10 mg/kg, ip administered for 9 days (reference value: 13.57 +/- 0.4 g); type: functional, Ehrlich
Mus musculus [19] = assay: Effect on RBC level in Swiss albino mouse xenografted with mouse EAC cells at 10 mg/kg, ip administered for 9 days measured on day 14 (reference value: 3.01+/- 0.75 10^6/mm3); type: functional, Ehrlich
Mus musculus [20] = assay: Effect on SGPT level in Swiss albino mouse xenografted with mouse EAC cells at 5 mg/kg, ip administered for 9 days measured on day 14 (reference value: 55.3 +/- 0.52 IU/L); type: functional, Ehrlich
[21] = Anticancer activity against mouse EAC cells xenografted in Swiss albino mouse assessed as mean survival time at 10 mg/kg, ip administered for 9 days measured for 30 days (reference value: 12.8 +/- 0.7 days); type: functional, Ehrlich
Mus musculus [22] = assay: Effect on hemoglobin level in Swiss albino mouse xenografted with mouse EAC cells at 5 mg/kg, ip administered for 9 days measured on day 14 (reference value: 5.67 +/- 0.8 g%); type: functional, Ehrlich
Mus musculus [23] = assay: Effect on hemoglobin level in Swiss albino mouse xenografted with mouse EAC cells at 10 mg/kg, ip administered for 9 days measured on day 14 (reference value: 5.67 +/- 0.8 g%); type: functional, Ehrlich
[24] = Anticancer activity against mouse EAC cells xenografted in Swiss albino mouse assessed as mean survival time at 5 mg/kg, ip administered for 9 days measured for 30 days (reference value: 12.8 +/- 0.7 days); type: functional, Ehrlich
Mus musculus [25] = assay: Effect on SGPT level in Swiss albino mouse xenografted with mouse EAC cells at 10 mg/kg, ip administered for 9 days measured on day 14 (reference value: 55.3 +/- 0.52 IU/L); type: functional, Ehrlich
Mus musculus [26] = assay: Effect on RBC level in Swiss albino mouse xenografted with mouse EAC cells at 5 mg/kg, ip administered for 9 days measured on day 14 (reference value: 3.01+/- 0.75 10^6/mm3); type: functional, Ehrlich
[27] = Anticancer activity against mouse EAC cells xenografted in Swiss albino mouse assessed as percent increase in life span at 10 mg/kg, ip administered for 9 days measured for 30 days; type: functional; conditions: Ehrlich

COc1ccc(-n2cc(COC(=O)c3cc4ccccc4[nH]3)nn2)cc1
MIC (Staphylococcus aureus): > 150 µg/mL | MIC (Escherichia coli [1]): > 150 µg/mL | IC50 (HEK293): 42.5 µM | IC50 (MCF7): 16.2 µM | MIC (Bacillus subtilis): > 150 µg/mL | MIC (Proteus vulgaris): 4.69 µg/mL (≈ 13.5 µM) | IC50 (HeLa): 16.1 µM

COc1ccc(-n2cc(COC(=O)c3cc4ccccc4n3Cc3cn(-c4ccc(OC)cc4)nn3)nn2)cc1
MIC (Staphylococcus aureus): > 150 µg/mL | MIC (Escherichia coli [1]): > 150 µg/mL | IC50 (HEK293): 43.9 µM | IC50 (MCF7): 100 µM | MIC (Bacillus subtilis): > 150 µg/mL | MIC (Proteus vulgaris): 9.38 µg/mL (≈ 17.5 µM) | IC50 (HeLa): 56.1 µM

O=C(OCc1cn(-c2cccc(C(F)(F)F)c2)nn1)c1cc2ccccc2[nH]1
MIC (Staphylococcus aureus): > 150 µg/mL | Activity (Escherichia coli [2]): Active | MIC (Escherichia coli [1]): 2.34 µg/mL (≈ 6.07 µM) | IC50 (HEK293): 32.7 µM | IC50 (MCF7): 16.5 µM | MIC (Bacillus subtilis): 4.69 µg/mL (≈ 12.1 µM) | MIC (Proteus vulgaris): > 150 µg/mL | IC50 (HeLa): 11.7 µM

O=C(OCc1cn(-c2ccccc2Br)nn1)c1cc2ccccc2n1Cc1cn(-c2ccccc2Br)nn1
MIC (Staphylococcus aureus): 2.34 µg/mL (≈ 3.7 µM) | Activity (Escherichia coli [2]): Active | MIC (Escherichia coli [1]): > 150 µg/mL | IC50 (HEK293): 12.1 µM | IC50 (MCF7): 64.1 µM | MIC (Bacillus subtilis): 1.17 µg/mL (≈ 1.85 µM) | MIC (Proteus vulgaris): > 150 µg/mL | IC50 (HeLa): 35.9 µM

Cc1cc(C)cc(-n2cc(COC(=O)c3cc4ccccc4n3Cc3cn(-c4cc(C)cc(C)c4)nn3)nn2)c1
MIC (Staphylococcus aureus): > 150 µg/mL | MIC (Escherichia coli [1]): > 150 µg/mL | IC50 (HEK293): 50.2 µM | IC50 (MCF7): 45.2 µM | MIC (Bacillus subtilis): > 150 µg/mL | MIC (Proteus vulgaris): > 150 µg/mL | IC50 (HeLa): 28.8 µM

Cc1cccc(-n2cc(COC(=O)c3cc4ccccc4[nH]3)nn2)c1C
MIC (Staphylococcus aureus): 4.69 µg/mL (≈ 13.5 µM) | MIC (Escherichia coli [1]): > 150 µg/mL | IC50 (HEK293): 15.3 µM | IC50 (MCF7): 17.1 µM | MIC (Bacillus subtilis): > 150 µg/mL | MIC (Proteus vulgaris): > 150 µg/mL | IC50 (HeLa): 30.3 µM

CCCCc1ccc(-n2cc(COC(=O)c3cc4ccccc4n3Cc3cn(-c4ccc(CCCC)cc4)nn3)nn2)cc1
MIC (Staphylococcus aureus): > 150 µg/mL | MIC (Escherichia coli [1]): > 150 µg/mL | IC50 (HEK293): > 200 µM | IC50 (MCF7): 66.9 µM | MIC (Bacillus subtilis): > 150 µg/mL | MIC (Proteus vulgaris): > 150 µg/mL | IC50 (HeLa): 42.8 µM

Cc1cccc(-n2cc(COC(=O)c3cc4ccccc4n3Cc3cn(-c4cccc(C)c4C)nn3)nn2)c1C
MIC (Staphylococcus aureus): > 150 µg/mL | MIC (Escherichia coli [1]): > 150 µg/mL | IC50 (HEK293): 14.1 µM | IC50 (MCF7): > 200 µM | MIC (Bacillus subtilis): > 150 µg/mL | MIC (Proteus vulgaris): > 150 µg/mL | IC50 (HeLa): > 200 µM

CN[C@@H]1[C@H](O[C@H]2[C@H](O[C@H]3[C@H](O)[C@@H](O)[C@H](N=C(N)N)[C@@H](O)[C@@H]3N=C(N)N)O[C@@H](C)[C@]2(O)C=O)O[C@@H](CO)[C@H](O)[C@H]1O [STREPTOMYCIN]
MIC (Staphylococcus aureus): 6.25 µg/mL (≈ 10.7 µM) | MIC (Escherichia coli [1]): 6.25 µg/mL (≈ 10.7 µM) | MIC (Bacillus subtilis): 6.25 µg/mL (≈ 10.7 µM) | MIC (Proteus vulgaris): 3.12 µg/mL (≈ 5.37 µM)

Cc1cc(C)cc(-n2cc(COC(=O)c3cc4ccccc4[nH]3)nn2)c1
MIC (Staphylococcus aureus): > 150 µg/mL | Activity (Escherichia coli [2]): Active | MIC (Escherichia coli [1]): > 150 µg/mL | IC50 (HEK293): 12.5 µM | IC50 (MCF7): 30.5 µM | MIC (Bacillus subtilis): > 150 µg/mL | MIC (Proteus vulgaris): > 150 µg/mL | IC50 (HeLa): 30.2 µM

O=C(OCc1cn(-c2ccccc2Br)nn1)c1cc2ccccc2[nH]1
MIC (Staphylococcus aureus): > 150 µg/mL | MIC (Escherichia coli [1]): > 150 µg/mL | IC50 (HEK293): > 200 µM | IC50 (MCF7): 38.8 µM | MIC (Bacillus subtilis): > 150 µg/mL | MIC (Proteus vulgaris): > 150 µg/mL | IC50 (HeLa): 17.3 µM

CCCCc1ccc(-n2cc(COC(=O)c3cc4ccccc4[nH]3)nn2)cc1
MIC (Staphylococcus aureus): > 150 µg/mL | MIC (Escherichia coli [1]): > 150 µg/mL | IC50 (HEK293): 24.2 µM | IC50 (MCF7): 28.8 µM | MIC (Bacillus subtilis): > 150 µg/mL | Activity (Escherichia coli [3]): Active | MIC (Proteus vulgaris): > 150 µg/mL | IC50 (HeLa): > 200 µM

O=C(OCc1cn(-c2cccc(C(F)(F)F)c2)nn1)c1cc2ccccc2n1Cc1cn(-c2cccc(C(F)(F)F)c2)nn1
Activity (Mus musculus [4]): 98.41 IU/L | MIC (Staphylococcus aureus): > 150 µg/mL | Activity (Mus musculus [5]): 5.96 mg/dL | Activity [6]: 6.27 ×10⁷ /ml | Activity (Mus musculus [7]): 11.83 g | Activity [8]: 0.86 mL | MIC (Escherichia coli [1]): 1.17 µg/mL (≈ 1.92 µM) | Activity [9]: 5.31 ×10⁷ /ml | Activity [10]: 5.08 mL | Activity (Mus musculus [11]): 7.02 mg/dL | IC50 (HEK293): 9.08 µM | Activity (Mus musculus [12]): 16.32 ×10³ /mm3 | Activity [13]: 9.32 mL | Activity [14]: 1.63 mL | IC50 (MCF7): 13.3 µM | Activity (Mus musculus [15]): 19.32 ×10³ /mm3 | ILS at 5 mg/kg [16]: 14.2% | MIC (Bacillus subtilis): 2.34 µg/mL (≈ 3.83 µM) | Activity (Mus musculus [17]): 109.03 IU/L | Activity (Mus musculus [18]): 9.7 g | Activity (Mus musculus [19]): 4.12 ×10⁶ /mm3 | Activity (Mus musculus [20]): 53.7 IU/L | MST [21]: 22.56 days | MIC (Proteus vulgaris): > 150 µg/mL | Activity (Mus musculus [22]): 7.32 g% | Activity (Mus musculus [23]): 9.3 g% | MST [24]: 17.23 days | Activity (Mus musculus [25]): 45.18 IU/L | Activity (Mus musculus [26]): 3.78 ×10⁶ /mm3 | IC50 (HeLa): 9.89 µM | ILS at 10 mg/kg [27]: 34.1%
